Reference: PubChem BioAssay AID2060618 (Molecular Pharmacology Branch, DTP, NCI, 2025)

Test system: 454973-116-R2-J3-PDC spheroids, percent test/control viability
Assay: Anticancer human tumor 454973-116-R2-J3-PDC patient-derived pancreatic carcinoma cell line growth inhibition [CLK]
Details: spheroids with HUVEC and MSC; for IC50: curve of first compound; for viability, T/C: stronger effect = lower value; active means viability on the fitted dose curve at most 10% of control; inactive means the rest
Method in brief: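 Multi-cell-type spheroids combined patient-derived tumor cells with HUVEC endothelial cells and human mesenchymal stem cells. Paired agents were dosed in half-log steps down from about clinical Cmax, or from 10 microM where Cmax was unknown.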

[1] = second compound 0.0316 µM, first compound 0.0316 µM
[2] = second compound 0.0316 µM, first compound 0.1 µM
[3] = second compound 0.1 µM, first compound 0.0316 µM
[4] = second compound 0.1 µM, first compound 0.1 µM
[5] = second compound 0.316 µM, first compound 0.0316 µM
[6] = second compound 0.316 µM, first compound 0.1 µM
[7] = second compound 1 µM, first compound 0.0316 µM
[8] = second compound 1 µM, first compound 0.1 µM
[9] = second compound 3.16 µM, first compound 0.0316 µM
[10] = second compound 3.16 µM, first compound 0.1 µM
[11] = second compound 10 µM, first compound 0.0316 µM
[12] = second compound 10 µM, first compound 0.1 µM
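Further: spheroids exposed to compounds for 7 days before readout.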

Cn1ncnc1[C@H]1c2n[nH]c(=O)c3cc(F)cc(c23)N[C@@H]1c1ccc(F)cc1 + CNC(=O)c1ccc(Nc2nc(OC3CCCC3)c3c(-c4ccc5nc(C)oc5c4)c[nH]c3n2)c(OC)c1
> 0.1 µM: IC50 (second compound 0.0316 µM) | IC50 (second compound 0.1 µM)
< 0.000316 µM: IC50 (second compound 0.316 µM) | IC50 (second compound 1 µM) | IC50 (second compound 3.16 µM) | IC50 (second compound 10 µM)
inactive: viability, T/C (second compound 0.0316 µM, first compound 0.000316 µM) 110% | viability, T/C (second compound 0.0316 µM, first compound 0.001 µM) 114% | viability, T/C (second compound 0.0316 µM, first compound 0.00316 µM) 110% | viability, T/C (second compound 0.0316 µM, first compound 0.01 µM) 119% | viability, T/C [1] 105% | viability, T/C [2] 86.2% | viability, T/C (second compound 0.1 µM, first compound 0.000316 µM) 113% | viability, T/C (second compound 0.1 µM, first compound 0.001 µM) 104% | viability, T/C (second compound 0.1 µM, first compound 0.00316 µM) 104% | viability, T/C (second compound 0.1 µM, first compound 0.01 µM) 106% | viability, T/C [3] 104% | viability, T/C [4] 86.4% | viability, T/C (second compound 0.316 µM, first compound 0.000316 µM) 43.1% | viability, T/C (second compound 0.316 µM, first compound 0.001 µM) 51.2% | viability, T/C (second compound 0.316 µM, first compound 0.00316 µM) 50.8% | viability, T/C (second compound 0.316 µM, first compound 0.01 µM) 52.2% | viability, T/C [5] 52.2% | viability, T/C [6] 48.1% | viability, T/C (second compound 1 µM, first compound 0.000316 µM) 33.1% | viability, T/C (second compound 1 µM, first compound 0.001 µM) 31.5% | viability, T/C (second compound 1 µM, first compound 0.00316 µM) 27.8% | viability, T/C (second compound 1 µM, first compound 0.01 µM) 36.4% | viability, T/C [7] 31.1% | viability, T/C [8] 23.5% | viability, T/C (second compound 3.16 µM, first compound 0.000316 µM) 29.2% | viability, T/C (second compound 3.16 µM, first compound 0.001 µM) 26.7% | viability, T/C (second compound 3.16 µM, first compound 0.00316 µM) 29% | viability, T/C (second compound 3.16 µM, first compound 0.01 µM) 25.7% | viability, T/C [9] 23.9% | viability, T/C [10] 21.4% | viability, T/C (second compound 10 µM, first compound 0.000316 µM) 25.5% | viability, T/C (second compound 10 µM, first compound 0.001 µM) 27.6% | viability, T/C (second compound 10 µM, first compound 0.00316 µM) 25.8% | viability, T/C (second compound 10 µM, first compound 0.01 µM) 21.7% | viability, T/C [11] 24.5% | viability, T/C [12] 19.6%

Nc1ccn(C2OC(CO)C(O)C2(F)F)c(=O)n1 (centres undefined) + CNC(=O)c1ccc(Nc2nc(OC3CCCC3)c3c(-c4ccc5nc(C)oc5c4)c[nH]c3n2)c(OC)c1
< 0.0316 µM: IC50 (second compound 0.0316 µM) | IC50 (second compound 0.1 µM) | IC50 (second compound 0.316 µM) | IC50 (second compound 1 µM) | IC50 (second compound 3.16 µM) | IC50 (second compound 10 µM)
inactive: viability, T/C [1] 10.8% | viability, T/C [3] 9.97% | viability, T/C [4] 8.66% | viability, T/C (second compound 0.1 µM, first compound 0.316 µM) 10.6% | viability, T/C (second compound 0.1 µM, first compound 1 µM) 9.85% | viability, T/C (second compound 0.1 µM, first compound 3.16 µM) 11.6% | viability, T/C (second compound 0.1 µM, first compound 10 µM) 10.8% | viability, T/C [5] 11.5% | viability, T/C [6] 10.7% | viability, T/C (second compound 0.316 µM, first compound 0.316 µM) 11.8% | viability, T/C (second compound 0.316 µM, first compound 1 µM) 10.4% | viability, T/C (second compound 0.316 µM, first compound 3.16 µM) 10.3% | viability, T/C (second compound 0.316 µM, first compound 10 µM) 8.88% | viability, T/C [7] 11.7% | viability, T/C [9] 11.8% | viability, T/C [11] 13%
active: viability, T/C [2] 9.2% | viability, T/C (second compound 0.0316 µM, first compound 0.316 µM) 11.1% | viability, T/C (second compound 0.0316 µM, first compound 1 µM) 7.75% | viability, T/C (second compound 0.0316 µM, first compound 3.16 µM) 7.61% | viability, T/C (second compound 0.0316 µM, first compound 10 µM) 8.18% | viability, T/C [8] 6.57% | viability, T/C (second compound 1 µM, first compound 0.316 µM) 7.9% | viability, T/C (second compound 1 µM, first compound 1 µM) 9.2% | viability, T/C (second compound 1 µM, first compound 3.16 µM) 7.06% | viability, T/C (second compound 1 µM, first compound 10 µM) 8.15% | viability, T/C [10] 6.57% | viability, T/C (second compound 3.16 µM, first compound 0.316 µM) 7.14% | viability, T/C (second compound 3.16 µM, first compound 1 µM) 9.4% | viability, T/C (second compound 3.16 µM, first compound 3.16 µM) 7.28% | viability, T/C (second compound 3.16 µM, first compound 10 µM) 7.11% | viability, T/C [12] 8.08% | viability, T/C (second compound 10 µM, first compound 0.316 µM) 4.66% | viability, T/C (second compound 10 µM, first compound 1 µM) 6.23% | viability, T/C (second compound 10 µM, first compound 3.16 µM) 9.5% | viability, T/C (second compound 10 µM, first compound 10 µM) 8.08%
